Data set [1] concerns mice. As to conditions: cited from earlier work.
Data set [2] relates to TNF-α. As to the kind of experiment: TNF-α levels in plasma of cisplatin-treated mice (commercial assay kit, eBioscience). In kind it is in vivo. Particulars: UTL-5g 15, 30, 60 mg/kg ip 30 min before cisplatin 2.5 mg/kg, daily ×5; pooled plasma. The method, then: FIG. 5. Effect of UTL-5g on TNF-α levels in plasma for mice treated with cisplatin. Gp 1, medium control (saline) only; Gp 2, saline followed by cisplatin (2.5 mg/kg) 30 min later; Gp 3, UTL-5g (15 mg/kg) followed by cisplatin 30 min later; Gp 4, UTL-5g (30 mg/kg) followed by cisplatin 30 min later; Gp 5, UTL-5g (60 mg/kg) followed by cisplatin 30 min later. Y axis represents the relative levels of TNF-α assuming 0% for Gp 1 (Control). Level of TNF-α on the figure is based on the average of 2 readings. […]
Using the samples from the same animal study, TNF-α levels in plasma were analyzed. […]

The subject of data set [3] is apoptotic liver cells. As to the kind of experiment: TUNEL assay for apoptotic liver cells after liver irradiation (Example 8). In kind it is in vivo, mice. As to conditions: for numbers of TUNEL positive cells induced by irradiation: 15 Gy, relative to non-irradiated controls, irradiated vehicle 4.1. The method, then: Mice were pre-treated with various doses of UTL-5g (7.5, 15, 30, and 60 mg/kg, i.p.) or control vehicle at 1 hr prior to liver radiation with 15 Gy. […] Representative liver sections showing TUNEL positive cells (green) counter-stained with […] (4′-6-diamidino-2-phenylindole) for nuclei under fluorescent microscope (40×) (6B). RT: radiation treatment.
To further analyze the radioprotective effect of UTL-5g, we examined the number of liver apoptotic cells by in situ TUNEL staining At the end of treatment, liver tissue sections were prepared, fixed and stained with TUNEL staining for apoptotic cells. There were “spontaneous” apoptotic liver cells in control animals as detected by TUNEL staining (20/five random fields), approximately 0.2% of total liver cells. […] The radioprotective effect of UTL-5g was dose-dependent.

“Also recorded” adds a separate entry of the source. Some results are limits rather than exact numbers.

In the case of `Cc1cc(C(=O)Nc2ccc(Cl)cc2Cl)no1` [UTL-5g], the “LD50 (acute toxicity)” value in data set [1] is recorded as above 200 mg/kg. The “TNF-α in plasma, effect of pretreatment” value in data set [2] is “lowered elevated TNF-α in plasma in a dose-dependent manner; also recorded: lowered the elevated levels of blood TNF-α induced by cisplatin in a dose dependent manner”. Further, the “TUNEL positive cells, protective effect” value in data set [3] (UTL-5g 7.5 mg/kg i.p. 1 hr prior to 15 Gy, liver 2 hr after) is on record as “no significant protective effect”. Besides, the “numbers of TUNEL positive cells induced by irradiation” value came out at 3.3 fold in data set [3] (UTL-5g 15 mg/kg), 1.8 fold in data set [3] (UTL-5g 30 mg/kg) and 1.4 fold in data set [3] (UTL-5g 60 mg/kg). Also, in data set [3] (UTL-5g alone at 30 and 60 mg/kg, no irradiation), the “number of apoptotic cells in liver, non-irradiated animals” value is given as “slightly increased the number of apoptotic cells”.

Values taken from patent publication US20120082736A1, “Small-molecule TNF modulator to reduce the side effects of chemotherapy and radiotherapy” (GeneBlue Corporation, priority 2010, published 2012).
